According to patent US7256286B2, “Bryostatin analogues, synthetic methods and uses” (The Board of Trustees of the Leland Stanford Junior …, priority 1999, dated 2007):
Read-outs that look alike come from different tables or passages of the source.

What was measured:
P388 cell line = assay: P388 murine lymphocytic leukemia cell assay; format: cell-based; settings: Mus musculus, P388, 120 h; 5 days incubation, MTT; read-out: P388 Assay ED50
Description: Cells from a P388 cell line (CellGate, Inc., Sunnyvale, Calif.) are grown in RPMI 1640 cell medium containing fetal calf serum (10%), L-glutamine, penicillin, streptomycin and are split twice weekly. All compounds are first diluted with DMSO. Later serial dilutions are done with a phosphate buffer solution (HYQ DPBS modified phosphate buffered saline). All dilutions are done in glass vials and the final DMSO concentration is always below 0.5% by volume. Final two-fold dilutions are done in a 96 well plate using cell media so that each well contains 50 μL. All compounds are assayed in quadruplicate over 12 concentrations. Cell concentration is measured using a hemacytometer and the final cell concentration is adjusted to 1×10^4 cells/mL with cell medium. The resulting solution of cells (50 μL) is then added to each well and the plates are incubated for 5 days in a 37° C., 5% CO2, humidified incubator (Sanyo CO2 incubator). MTT solution (3-[4,5-dimethylthiazol-2-yl]-2,5-diphenyltetrazolium bromide, 10 μL) is then added to each well and the plates are re-incubated under identical conditions for 2 h. To each well is then added acidified isopropanol (150 μL of i-PrOH solution containing 0.05 N HCl) and mixed thoroughly. The plates are then scanned at 595 nm and the absorbances are read (Wallac Victor 1420 Multilabel Counter). The resulting data is then analyzed to determine an ED50 value using the Prism software package (GraphPad).

PKCδ-C1B = molecular target: T1, PKCδ-C1B (Mus musculus, UniProt P28867); assay: PKCδ-C1B assay; format: binding
T1 construct: made in house
T1 sequence (P28867 231-281 limits assumed): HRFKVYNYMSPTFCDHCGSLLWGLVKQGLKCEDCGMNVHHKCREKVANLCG
Description: Phosphatidyl serine vesicles are prepared by the addition of phosphatidyl serine (10 mg/mL in chloroform, 0.4 mL) to a glass test tube followed by removal of the chloroform under a stream of nitrogen (5 min). […] The resulting solution is stored over ice. […] Stock solutions of compounds are diluted with absolute ethanol in glass in serial fashion. […] The tubes are incubated at 37° C. for 90 min. and then put on ice for 5 min. Each tube is then filtered separately through a pre-soaked filter disc. […] The filter is subsequently rinsed with cold 20 mM TRIS buffer (5 mL) dropwise. […] The filters are immediately counted in a scintillation counter (Beckman LS 6000SC). Counts per minute are averaged among three trials at each concentration.

[1] = molecular target: PKC purified from rat brain (mixture of PKC isoenzymes); assay: Protein kinase C (isozyme mix) assay; format: binding; settings: determined under identical conditions to the PKC isozyme mix assay; read-out: Kd of [H^3]-PDBu
Description: In one approach, anticancer activity of compounds of the invention can be assessed using the protein kinase C assay detailed in Example 5. In this assay, Ki values are determined for analogues based on competition with radiolabeled phorbol 12,13-dibutyrate for binding to a mixture of PKC isoenzymes. PKC enzymes are implicated in a variety of cellular responses which may be involved in the activity of the bryostatins.
The following procedure was used, based on a modification of a previous procedure described by Tanaka et al. (1986). Filters (Whatman GF-B, 21 mm diam.) are soaked for 1 h in a solution containing deionized water (97 mL), and 10% polyethyleneamine (3 mL). A filtering buffer solution containing TRIS (1M, pH 7.4, 10 mL) and water (490 mL) is prepared and cooled on ice. […] Non-specific binding is measured in 1–3 tubes by the substitution of phorbol myristate acetate (PMA) (1 mM, 5 μL) and EtOH (15 μL) for the analogue/EtOH combination. […] The filters are immediately counted in a scintillation counter (Beckman LS 6000SC). […] The data is then plotted using a least squares fit algorithm with the Macintosh version of Kaleidagraph© (Abelbeck Software) and an IC50 (defined as the concentration of analogue required to displace half of the specific PDBU binding to PKC) is calculated. […]

Compound: COC(=O)/C=C1\C[C@H]2C[C@H]([C@@H](C)O)OC(=O)C[C@H](O)C[C@@H]3CCC[C@H](C[C@@H]4CCO[C@H](/C=C/C(C)(C)[C@](O)(O2)C1OC(C)=O)O4)O3 (stereo partly drawn) [Formula 702.2]
- EC50 (P388 cell line): 0.181 µM
- Ki (PKCδ-C1B; competition with tritiated phorbol 12,13-dibutyrate, read-out: PKCδ-C1B Assay Ki): 0.232 ± 0.011 µM

Compound: CCCCCCCC(=O)O[C@H]1/C(=C/C(=O)OC)CC2C[C@H]([C@@H](C)O)OC(=O)C[C@H](O)C[C@@H]3CCC[C@H](C[C@@H]4CCO[C@H](/C=C/C(C)(C)[C@]1(O)O2)O4)O3 [Formula 1998a, reference compound]
- EC50 (P388 cell line): 0.076 µM
- Ki (PKCδ-C1B): 0.0051 µM

Compound: CCCC(=O)O[C@@H]1[C@@H](C)[C@@]2(O)[C@@H](C=C(CO)C[C@]3(O)C(=O)C(C)=C[C@@H]23)[C@@H]2C(C)(C)[C@]12OC(=O)CCC [Phorbol dibutyrate, phorbol 12,13-dibutyrate, reference compound]
- Kd (PKCδ-C1B; Kd value printed in the Ki column): 0.0017 µM
- Kd [1]: 0.00155 µM
